In ChEMBL document CHEMBL5375944, “Discovery of Potent Agonists for the Predominant Variant of the Orphan MAS-Related G Protein-Coupled Receptor X4 (MRGPRX4)” (J Med Chem, 2023):

Tested on: not listed separately
Assay: Agonist activity at MRGPRX4 83S in human LN229 glioblastoma cells assessed as change in intracellular calcium level by calcium mobilization assay
Format: cell-based
Conditions: not given

Point of comparison: `C#CCn1c(=O)c2[nH]c(/C=C/c3cccc(OC)c3)nc2n(CCCCP(=O)(O)O)c1=O`, EC50 0.0116 µM. Against it:
- C#CCn1c(=O)c2c(nc(-c3cccc(OC)c3)n2C)n(CCCOP(=O)(O)O)c1=O — higher, > 10 µM
- C#CCn1c(=O)c2[nH]c(CCc3ccccc3)nc2n(CCCCP(=O)(O)O)c1=O — 12-fold higher, 0.134 µM
- COc1cccc(CCc2nc3c([nH]2)c(=O)n(CC2CCC2)c(=O)n3CCCCP(=O)(O)O)c1 — 5.2-fold higher, 0.0599 µM
- C#CCn1c(=O)c2c(nc(/C=C/c3cccc(OC)c3)n2C)n(CCCO)c1=O — higher, > 10 µM
- C#CCn1c(=O)c2[nH]c(CCc3cccc(OC)c3)nc2n(CCCOC(C)=O)c1=O — higher, > 10 µM
- C#CCn1c(=O)c2[nH]c(CCc3cccc(OC)c3)nc2n(CCCO)c1=O — higher, > 10 µM
- C#CCn1c(=O)c2c(nc(CCc3cccc(OC)c3)n2C)n(CCCCP(=O)(O)O)c1=O — 1.7-fold higher, 0.0192 µM
- CCn1c(=O)c2[nH]c(CCc3cccc(OC)c3)nc2n(CCCCP(=O)(O)O)c1=O — 18-fold higher, 0.214 µM
- C#CCn1c(=O)c2c(nc(CCc3cccc(OC)c3)n2C)n(CCCOP(=O)(O)O)c1=O — 21-fold higher, 0.238 µM
- C#CCn1c(=O)c2[nH]c(CCc3cccc(OC)c3)nc2n(CCCCC(=O)O)c1=O — higher, > 10 µM
- C#CCn1c(=O)c2[nH]c(C(C)Cc3ccccc3)nc2n(CCCCP(=O)(O)OCC)c1=O (stereo not given) — higher, > 10 µM

Tested on: not listed separately
Assay: Agonist activity at MRGPRX4 83S (unknown origin) expressed in CHO-K1 cells assessed as induction of beta-arrestin recruitment measured after 90 mins by luminescence assay
Format: cell-based
Conditions: Homo sapiens, CHO-K1, 1.5 h

Point of comparison: `C#CCn1c(=O)c2[nH]c(/C=C/c3cccc(OC)c3)nc2n(CCCCP(=O)(O)O)c1=O`, EC50 0.2 µM. Against it:
- C#CCn1c(=O)c2c(nc(-c3cccc(OC)c3)n2C)n(CCCOP(=O)(O)O)c1=O — higher, > 10 µM
- C#CCn1c(=O)c2[nH]c(CCc3ccccc3)nc2n(CCCCP(=O)(O)O)c1=O — 2-fold higher, 0.399 µM
- COc1cccc(CCc2nc3c([nH]2)c(=O)n(CC2CCC2)c(=O)n3CCCCP(=O)(O)O)c1 — 2.9-fold lower, 0.0689 µM
- C#CCn1c(=O)c2[nH]c(CCc3cccc(OC)c3)nc2n(CCCOC(C)=O)c1=O — higher, > 10 µM
- C#CCn1c(=O)c2[nH]c(CCc3cccc(OC)c3)nc2n(CCCO)c1=O — higher, > 10 µM
- C#CCn1c(=O)c2c(nc(CCc3cccc(OC)c3)n2C)n(CCCCP(=O)(O)O)c1=O — 6.7-fold lower, 0.03 µM
- CCn1c(=O)c2[nH]c(CCc3cccc(OC)c3)nc2n(CCCCP(=O)(O)O)c1=O — 5.9-fold higher, 1.19 µM
- C#CCn1c(=O)c2c(nc(CCc3cccc(OC)c3)n2C)n(CCCOP(=O)(O)O)c1=O — 1.9-fold higher, 0.374 µM
- C#CCn1c(=O)c2[nH]c(CCc3cccc(OC)c3)nc2n(CCCCC(=O)O)c1=O — 34-fold higher, 6.72 µM
- C#CCn1c(=O)c2[nH]c(C(C)Cc3ccccc3)nc2n(CCCCP(=O)(O)OCC)c1=O (stereo not given) — higher, > 10 µM

Tested on: not listed separately
Assay: Agonist activity at MRGPRX4 83L (unknown origin) expressed in human 1321N1 glioblastoma cells assessed as change in intracellular calcium level by calcium mobilization assay
Format: cell-based
Conditions: not given

Point of comparison: `CCn1c(=O)c2[nH]c(CCc3cccc(OC)c3)nc2n(CCCCP(=O)(O)O)c1=O`, EC50 3.8 µM. Against it:
- C#CCn1c(=O)c2c(nc(-c3cccc(OC)c3)n2C)n(CCCOP(=O)(O)O)c1=O — higher, > 10 µM
- C#CCn1c(=O)c2[nH]c(CCc3ccccc3)nc2n(CCCCP(=O)(O)O)c1=O — within 1.5-fold, 3.25 µM
- COc1cccc(CCc2nc3c([nH]2)c(=O)n(CC2CCC2)c(=O)n3CCCCP(=O)(O)O)c1 — 2.4-fold lower, 1.6 µM
- C#CCn1c(=O)c2[nH]c(/C=C/c3cccc(OC)c3)nc2n(CCCCP(=O)(O)O)c1=O — higher, > 10 µM
- C#CCn1c(=O)c2[nH]c(CCc3cccc(OC)c3)nc2n(CCCOC(C)=O)c1=O — higher, > 10 µM
- C#CCn1c(=O)c2[nH]c(CCc3cccc(OC)c3)nc2n(CCCO)c1=O — higher, > 10 µM
- C#CCn1c(=O)c2c(nc(CCc3cccc(OC)c3)n2C)n(CCCCP(=O)(O)O)c1=O — 11-fold lower, 0.333 µM
- C#CCn1c(=O)c2c(nc(CCc3cccc(OC)c3)n2C)n(CCCOP(=O)(O)O)c1=O — 6.6-fold lower, 0.574 µM
- C#CCn1c(=O)c2[nH]c(CCc3cccc(OC)c3)nc2n(CCCCC(=O)O)c1=O — higher, > 10 µM
- C#CCn1c(=O)c2[nH]c(C(C)Cc3ccccc3)nc2n(CCCCP(=O)(O)OCC)c1=O (stereo not given) — higher, > 10 µM

Tested on: not listed separately
Assay: Agonist activity at MRGPRX4 83L (unknown origin) expressed in CHO cells assessed as induction of beta-arrestin recruitment measured after 90 mins by luminescence assay
Format: cell-based
Conditions: Homo sapiens, 1.5 h

Point of comparison: `C#CCn1c(=O)c2c(nc(CCc3cccc(OC)c3)n2C)n(CCCCP(=O)(O)O)c1=O`, EC50 6.28 µM. Against it:
- C#CCn1c(=O)c2c(nc(-c3cccc(OC)c3)n2C)n(CCCOP(=O)(O)O)c1=O — higher, > 10 µM
- C#CCn1c(=O)c2[nH]c(CCc3ccccc3)nc2n(CCCCP(=O)(O)O)c1=O — higher, > 10 µM
- COc1cccc(CCc2nc3c([nH]2)c(=O)n(CC2CCC2)c(=O)n3CCCCP(=O)(O)O)c1 — higher, > 10 µM
- C#CCn1c(=O)c2[nH]c(/C=C/c3cccc(OC)c3)nc2n(CCCCP(=O)(O)O)c1=O — higher, > 10 µM
- C#CCn1c(=O)c2[nH]c(CCc3cccc(OC)c3)nc2n(CCCOC(C)=O)c1=O — higher, > 10 µM
- C#CCn1c(=O)c2[nH]c(CCc3cccc(OC)c3)nc2n(CCCO)c1=O — higher, > 10 µM
- CCn1c(=O)c2[nH]c(CCc3cccc(OC)c3)nc2n(CCCCP(=O)(O)O)c1=O — higher, > 10 µM
- C#CCn1c(=O)c2c(nc(CCc3cccc(OC)c3)n2C)n(CCCOP(=O)(O)O)c1=O — higher, > 10 µM
- C#CCn1c(=O)c2[nH]c(CCc3cccc(OC)c3)nc2n(CCCCC(=O)O)c1=O — higher, > 10 µM
- C#CCn1c(=O)c2[nH]c(C(C)Cc3ccccc3)nc2n(CCCCP(=O)(O)OCC)c1=O (stereo not given) — higher, > 10 µM

Biological target: Mas-related G-protein coupled receptor member X1 (Homo sapiens, UniProt Q96LB2)
Assay: Agonist activity at MRGPRX1 (unknown origin) by beta-arrestin recruitment assay
Conditions: not given

Sequence of Mas-related G-protein coupled receptor member X1 (Q96LB2 whole entry): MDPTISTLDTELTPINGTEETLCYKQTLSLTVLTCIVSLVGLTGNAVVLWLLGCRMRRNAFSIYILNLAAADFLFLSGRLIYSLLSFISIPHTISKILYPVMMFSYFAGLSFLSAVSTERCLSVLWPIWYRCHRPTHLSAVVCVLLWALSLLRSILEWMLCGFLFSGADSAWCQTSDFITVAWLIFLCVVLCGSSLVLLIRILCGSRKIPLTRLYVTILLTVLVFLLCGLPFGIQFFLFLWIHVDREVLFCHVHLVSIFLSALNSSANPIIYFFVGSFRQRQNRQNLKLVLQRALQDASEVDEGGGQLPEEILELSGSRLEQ

With `C#CCn1c(=O)c2c(nc(/C=C/c3cccc(OC)c3)n2C)n(CCCOP(=O)(O)O)c1=O` the EC50 was greater than 10 µM.

Biological target: Mas-related G-protein coupled receptor member X3 (Homo sapiens, UniProt Q96LB0)
Assay: Agonist activity at MRGPRX3 (unknown origin) by beta-arrestin recruitment assay
Format: functional
Conditions: not given

Sequence of Mas-related G-protein coupled receptor member X3 (Q96LB0 whole entry): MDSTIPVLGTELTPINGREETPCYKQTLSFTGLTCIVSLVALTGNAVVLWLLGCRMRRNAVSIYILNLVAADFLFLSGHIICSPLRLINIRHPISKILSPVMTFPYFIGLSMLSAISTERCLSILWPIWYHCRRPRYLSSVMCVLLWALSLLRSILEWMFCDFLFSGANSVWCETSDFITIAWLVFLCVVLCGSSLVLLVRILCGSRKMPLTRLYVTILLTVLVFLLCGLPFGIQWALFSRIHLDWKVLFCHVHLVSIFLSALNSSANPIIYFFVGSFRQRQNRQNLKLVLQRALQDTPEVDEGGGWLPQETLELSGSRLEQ

For `C#CCn1c(=O)c2c(nc(/C=C/c3cccc(OC)c3)n2C)n(CCCOP(=O)(O)O)c1=O`, the EC50 was greater than 10 µM.

Biological target: G-protein coupled receptor 143 (Homo sapiens, UniProt P51810)
Assay: Agonist activity at GPR143 (unknown origin) by beta-arrestin recruitment assay
Conditions: not given

Sequence of G-protein coupled receptor 143 (P51810 whole entry): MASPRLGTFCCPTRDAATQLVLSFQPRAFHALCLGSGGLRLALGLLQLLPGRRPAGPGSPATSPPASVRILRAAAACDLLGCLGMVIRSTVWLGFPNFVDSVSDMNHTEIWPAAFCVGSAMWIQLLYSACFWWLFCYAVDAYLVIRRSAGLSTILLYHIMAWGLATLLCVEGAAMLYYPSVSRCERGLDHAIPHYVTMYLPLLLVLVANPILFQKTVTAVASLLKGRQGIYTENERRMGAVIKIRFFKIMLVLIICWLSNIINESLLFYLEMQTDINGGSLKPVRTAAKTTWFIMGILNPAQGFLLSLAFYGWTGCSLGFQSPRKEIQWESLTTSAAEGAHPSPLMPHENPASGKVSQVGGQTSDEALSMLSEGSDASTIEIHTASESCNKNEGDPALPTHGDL

Molecule `C#CCn1c(=O)c2c(nc(/C=C/c3cccc(OC)c3)n2C)n(CCCOP(=O)(O)O)c1=O` has an EC50 greater than 10 µM.

Tested on: LN-229
Assay: Cytotoxicity against human LN-229 glioblastoma cells assessed as cell viability upto 30 uM measured after 3 days by MTT assay
Format: toxicity, cell-based
Conditions: ln-229, 72 h, time 3 day

For `C#CCn1c(=O)c2c(nc(CCc3cccc(OC)c3)n2C)n(CCCCP(=O)(O)O)c1=O`, the Activity was “Non-Toxic”.

Tested on: not listed separately
Assay: Metabolic stability of the compound in human liver microsomes assessed as half life at 1 uM in presence of NADPH by LC-MS analysis
Format: ADME, Microsome
Conditions: not given

In the case of `C#CCn1c(=O)c2c(nc(CCc3cccc(OC)c3)n2C)n(CCCCP(=O)(O)O)c1=O`, the half-life at 1 µM is reported as greater than 16 h.
